Results as given in patent US20230226106A1 (priority 2017, published 2023).

Tested on: Human umbilical cord endothelial cells
Format: cell-based
From the text: The toxicity of each component is checked on Human cell lines (Human umbilical cord endothelial cells).

**Q.** Which results are given for `CCCCCCCCCCCCC/C=C/[C@@H](O)[C@@H](N)COP(=O)(O)O` [Sphingosine-1-phosphate, Sphingosine-1-Phosphate]?
**A.** toxicity (Human umbilical cord endothelial cells): not toxic; proliferation of cells (at as low as 1 μM concentration): proliferative

**Q.** `O=C(O)c1cc(O)c(O)c(O)c1` [Gallic acid] was tested. Which human cell growth (treatment with as much as 250 μg/mL) did it give?
**A.** The human cell growth was 100%.
